Measurements published in ChEMBL document CHEMBL1124687, “Analogues of atriopeptin(103-125)amide having high binding selectivity” (J Med Chem, 1989).
Positions of bridges follow the written chain, without caps; N, C: chain ends. Non-standard residues stand in square brackets, D forms with d. Residues, ends and D or L forms follow the SMILES beside them. ξ: configuration not given here. Nva = CCC[C@H](N)C(=O)O; Abu = CC[C@H](N)C(=O)O; ξA = CC(N)C(=O)O

Tests used:
[1] = molecular target: T1, Atrial natriuretic peptide receptor 3 (Homo sapiens) (UniProt P17342); assay: Binding affinity for non-vasorelaxant receptor by competitive displacement of [125I]-AP(103-126) from rabbit lung membranes; assay type: tissue-based; settings: Oryctolagus cuniculus, Membrane, target entry is the homologue from another species
T1 sequence (whole entry): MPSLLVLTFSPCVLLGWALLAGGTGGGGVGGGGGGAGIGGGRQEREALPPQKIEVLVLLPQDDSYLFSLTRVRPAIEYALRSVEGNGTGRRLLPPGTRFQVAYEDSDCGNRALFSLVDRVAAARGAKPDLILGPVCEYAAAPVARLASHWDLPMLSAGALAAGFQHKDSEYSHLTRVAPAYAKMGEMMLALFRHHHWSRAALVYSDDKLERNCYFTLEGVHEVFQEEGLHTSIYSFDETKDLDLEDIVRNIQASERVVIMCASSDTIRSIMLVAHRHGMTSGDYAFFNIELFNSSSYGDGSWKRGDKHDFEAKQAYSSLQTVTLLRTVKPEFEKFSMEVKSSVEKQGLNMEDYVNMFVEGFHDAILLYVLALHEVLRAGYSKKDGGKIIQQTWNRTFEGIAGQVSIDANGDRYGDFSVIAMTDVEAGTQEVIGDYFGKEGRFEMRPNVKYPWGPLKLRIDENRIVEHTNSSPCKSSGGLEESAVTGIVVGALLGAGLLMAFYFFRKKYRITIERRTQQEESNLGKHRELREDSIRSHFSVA

Oryctolagus cuniculus = species on record: Oryctolagus cuniculus; assay: Binding affinity for vasorelaxant receptor by competitive displacement of [125I]-AP(103-126) from rabbit lung membranes; assay type: tissue-based; settings: Membrane
[2] = molecular target: Atrial natriuretic peptide receptor (Homo sapiens) (UniProt P20594+P16066+P17342); assay: Selectivity factor, ratio of NVR and VR relative binding potency; assay type: protein assay; settings: Oryctolagus cuniculus

| SMILES | Relative potency [1] | Relative potency (Oryctolagus cuniculus) | Ratio [2] |
| --- | --- | --- | --- |
| CC[C@H](C)[C@@H]1NC(=O)[C@H](CCCN=C(N)N)NC(=O)CNC(=O)CNC(=O)[C@H](Cc2ccccc2)NC(=O)[C@H](CO)NC(=O)[C@@H](NC(=O)[C@@H](N)CO)CSSC[C@@H](C(=O)N[C@@H](CO)C(=O)N[C@@H](Cc2ccccc2)C(=O)N[C@@H](CCCN=C(N)N)C(N)=O)NC(=O)[C@H](CO)NC(=O)CNC(=O)[C@H](CC(C)C)NC(=O)CNC(=O)[C@H](CO)NC(=O)[C@H](CCC(N)=O)NC(=O)[C@H](C)NC(=O)CNC(=O)[C@H]([C@@H](C)CC)NC(=O)[C@@H](CCCN=C(N)N)NC(=O)[C@H](CC(=O)O)NC1=O | 2 | 0.005 | 400 |
| CC[C@H](C)[C@@H]1NC(=O)[C@H](CCCN=C(N)N)NC(=O)[C@H](CC(=O)O)NC(=O)[C@H]([C@@H](C)CC)NC(=O)[C@H](CCCN=C(N)N)NC(=O)CNC(=O)CNC(=O)[C@H](Cc2ccccc2)NC(=O)CNC(=O)[C@@H](NC(=O)[C@@H](N)CO)CSSC[C@H](C(=O)N[C@@H](CC(N)=O)C(=O)N[C@@H](CO)C(=O)N[C@@H](Cc2ccccc2)C(=O)N[C@@H](CCCN=C(N)N)C(N)=O)NC(=O)CNC(=O)[C@H](CC(C)C)NC(=O)CNC(=O)[C@H](CO)NC(=O)[C@H](CCC(N)=O)NC(=O)[C@H](C)NC(=O)CNC1=O | 1.8 | 0.056 | 32 |
| CC[C@H](C)[C@@H]1NC(=O)[C@H](CCCN=C(N)N)NC(=O)[C@H](CC(=O)O)NC(=O)[C@H]([C@@H](C)CC)NC(=O)[C@H](CCCN=C(N)N)NC(=O)CNC(=O)CNC(=O)[C@H](Cc2ccccc2)NC(=O)[C@H](NC(=O)[C@H](CO)NC(=O)[C@@H](N)CO)CSSC[C@@H](C(=O)N[C@@H](CO)C(=O)N[C@@H](Cc2ccccc2)C(=O)N[C@@H](CCCN=C(N)N)C(N)=O)NC(=O)[C@H](CSC)NC(=O)CNC(=O)[C@H](CC(C)C)NC(=O)CNC(=O)[C@H](CO)NC(=O)[C@H](CCC(N)=O)NC(=O)[C@H](C)NC(=O)CNC1=O | 3.1 | 0.1 | 31 |
| CC[C@H](C)[C@@H]1NC(=O)[C@H](CCCN=C(N)N)NC(=O)[C@H](CC(=O)O)NC(=O)[C@H]([C@@H](C)CC)NC(=O)[C@H](CCCN=C(N)N)NC(=O)CNC(=O)CNC(=O)[C@H](Cc2ccccc2)NC(=O)[C@H](CSC)NC(=O)[C@@H](NC(=O)[C@@H](N)CO)CSSC[C@@H](C(=O)N[C@@H](CC(N)=O)C(=O)N[C@@H](CO)C(=O)N[C@@H](Cc2ccccc2)C(=O)N[C@@H](CCCN=C(N)N)C(N)=O)NC(=O)CNC(=O)[C@H](CC(C)C)NC(=O)CNC(=O)[C@H](CO)NC(=O)[C@H](CCC(N)=O)NC(=O)[C@H](C)NC(=O)CNC1=O (H-SCC(Me)FGGRIDRIGAQSGLGCNSFR-NH2; disulfide 2-19) | 6.6 | 0.28 | 24 |
| CC[C@H](C)[C@@H]1NC(=O)[C@H](CCCN=C(N)N)NC(=O)[C@H](CC(=O)O)NC(=O)[C@H]([C@@H](C)CC)NC(=O)[C@H](CCCN=C(N)N)NC(=O)CNC(=O)CNC(=O)[C@H](Cc2ccccc2)NC(=O)CNC(=O)[C@@H](NC(=O)[C@@H](N)CO)CSSC[C@@H](C(=O)N[C@@H](CO)C(=O)N[C@@H](Cc2ccccc2)C(=O)N[C@@H](CCCN=C(N)N)C(N)=O)NC(=O)CNC(=O)CNC(=O)[C@H](CC(C)C)NC(=O)CNC(=O)[C@H](CO)NC(=O)[C@H](CCC(N)=O)NC(=O)[C@H](C)NC(=O)CNC1=O (H-SCGFGGRIDRIGAQSGLGGCSFR-NH2; disulfide 2-20) | 1.5 | 0.0069 | 217 |
| CC[C@H](C)[C@@H]1NC(=O)[C@H](CCCN=C(N)N)NC(=O)[C@H](CC(=O)O)NC(=O)[C@H]([C@@H](C)CC)NC(=O)[C@H](CCCN=C(N)N)NC(=O)CNC(=O)CNC(=O)[C@H](Cc2ccccc2)NC(=O)[C@H](CO)NC(=O)[C@@H](NC(=O)[C@@H](N)CO)CSSC[C@@H](C(=O)N[C@@H](CC(N)=O)C(=O)N[C@@H](CO)C(=O)N[C@@H](Cc2ccccc2)C(=O)N[C@@H](CCCN=C(N)N)C(N)=O)NC(=O)CNC(=O)[C@H](CC(C)C)NC(=O)CNC(=O)[C@H](CO)NC(=O)[C@H](CCC(N)=O)NC(=O)[C@H](C)NC(=O)CNC1=O (H-SCSFGGRIDRIGAQSGLGCNSFR-NH2; disulfide 2-19) | 3.8 | 0.24 | 16 |
| CC[C@@H]1NC(=O)[C@@H](NC(=O)[C@@H](N)CO)CSSC[C@@H](C(=O)N[C@@H](CC(N)=O)C(=O)N[C@@H](CO)C(=O)N[C@@H](Cc2ccccc2)C(=O)N[C@@H](CCCN=C(N)N)C(N)=O)NC(=O)CNC(=O)[C@H](CC(C)C)NC(=O)CNC(=O)[C@H](CO)NC(=O)[C@H](CCC(N)=O)NC(=O)[C@H](C)NC(=O)CNC(=O)[C@H]([C@@H](C)CC)NC(=O)[C@H](CCCN=C(N)N)NC(=O)[C@H](CC(=O)O)NC(=O)[C@H]([C@@H](C)CC)NC(=O)[C@H](CCCN=C(N)N)NC(=O)CNC(=O)CNC(=O)[C@H](Cc2ccccc2)NC1=O (H-SC[Abu]FGGRIDRIGAQSGLGCNSFR-NH2; disulfide 2-19) | 2.1 | 0.053 | 40 |
| CCC[C@@H]1NC(=O)[C@@H](NC(=O)[C@@H](N)CO)CSSC[C@@H](C(=O)N[C@@H](CC(N)=O)C(=O)N[C@@H](CO)C(=O)N[C@@H](Cc2ccccc2)C(=O)N[C@@H](CCCN=C(N)N)C(N)=O)NC(=O)CNC(=O)[C@H](CC(C)C)NC(=O)CNC(=O)[C@H](CO)NC(=O)[C@H](CCC(N)=O)NC(=O)[C@H](C)NC(=O)CNC(=O)[C@H]([C@@H](C)CC)NC(=O)[C@H](CCCN=C(N)N)NC(=O)[C@H](CC(=O)O)NC(=O)[C@H]([C@@H](C)CC)NC(=O)[C@H](CCCN=C(N)N)NC(=O)CNC(=O)CNC(=O)[C@H](Cc2ccccc2)NC1=O (H-SC[Nva]FGGRIDRIGAQSGLGCNSFR-NH2; disulfide 2-19) | 0.75 | 0.0084 | 89 |
| CCC[C@@H]1NC(=O)CNC(=O)[C@H](CC(C)C)NC(=O)CNC(=O)[C@H](CO)NC(=O)[C@H](CCC(N)=O)NC(=O)[C@H](C)NC(=O)CNC(=O)[C@H]([C@@H](C)CC)NC(=O)[C@H](CCCN=C(N)N)NC(=O)[C@H](CC(=O)O)NC(=O)[C@H]([C@@H](C)CC)NC(=O)[C@H](CCCN=C(N)N)NC(=O)CNC(=O)CNC(=O)[C@H](Cc2ccccc2)NC(=O)[C@H](CCC)NC(=O)[C@@H](NC(=O)[C@@H](N)CO)CSSC[C@@H](C(=O)N[C@@H](CO)C(=O)N[C@@H](Cc2ccccc2)C(=O)N[C@@H](CCCN=C(N)N)C(N)=O)NC1=O (H-SC[Nva]FGGRIDRIGAQSGLG[Nva]CSFR-NH2; disulfide 2-20) | 0.47 | 0.001 | 470 |
| CC[C@H](C)[C@@H]1NC(=O)[C@H](CCCN=C(N)N)NC(=O)[C@H](CC(=O)O)NC(=O)[C@H]([C@@H](C)CC)NC(=O)[C@H](CCCN=C(N)N)NC(=O)CNC(=O)CNC(=O)[C@H](Cc2ccccc2)NC(=O)C(C)NC(=O)[C@@H](NC(=O)[C@@H](N)CO)CSSC[C@@H](C(=O)N[C@@H](CC(N)=O)C(=O)N[C@@H](CO)C(=O)N[C@@H](Cc2ccccc2)C(=O)N[C@@H](CCCN=C(N)N)C(N)=O)NC(=O)CNC(=O)[C@H](CC(C)C)NC(=O)CNC(=O)[C@H](CO)NC(=O)[C@H](CCC(N)=O)NC(=O)[C@H](C)NC(=O)CNC1=O (some centres undefined) (H-SC[ξA]FGGRIDRIGAQSGLGCNSFR-NH2; disulfide 2-19) | 2.2 | 0.088 | 25 |
| CC[C@H](C)[C@@H]1NC(=O)[C@H](CCCN=C(N)N)NC(=O)[C@H](CC(=O)O)NC(=O)[C@H]([C@@H](C)CC)NC(=O)[C@H](CCCN=C(N)N)NC(=O)CNC(=O)CNC(=O)[C@H](Cc2ccccc2)NC(=O)[C@@H](NC(=O)[C@H](CO)NC(=O)[C@@H](N)CO)CSSC[C@@H](C(=O)NCC(=O)N[C@@H](CC(N)=O)C(=O)N[C@@H](CO)C(=O)N[C@@H](Cc2ccccc2)C(=O)N[C@@H](CCCN=C(N)N)C(N)=O)NC(=O)[C@H](CC(C)C)NC(=O)CNC(=O)[C@H](CO)NC(=O)[C@H](CCC(N)=O)NC(=O)[C@H](C)NC(=O)CNC1=O (H-SSCFGGRIDRIGAQSGLCGNSFR-NH2; disulfide 3-18) | 0.91 |  | 1 |
| CC[C@H](C)[C@@H]1NC(=O)[C@H](CCCN=C(N)N)NC(=O)[C@H](CC(=O)O)NC(=O)[C@H]([C@@H](C)CC)NC(=O)[C@H](CCCN=C(N)N)NC(=O)CNC(=O)CNC(=O)[C@H](Cc2ccccc2)NC(=O)[C@@H](NC(=O)[C@H](CO)NC(=O)[C@@H](N)CO)CSSC[C@@H](C(=O)N[C@@H](CC(N)=O)C(=O)N[C@@H](CO)C(=O)N[C@@H](Cc2ccccc2)C(=O)N[C@@H](CCCN=C(N)N)C(N)=O)NC(=O)CNC(=O)[C@H](CC(C)C)NC(=O)CNC(=O)[C@H](CO)NC(=O)[C@H](CCC(N)=O)NC(=O)[C@H](C)NC(=O)CNC1=O (H-SSCFGGRIDRIGAQSGLGCNSFR-NH2; disulfide 3-19) | 1 |  | 1 |
